Patent publication US8207206B2, “(S,R)-3-phenyl-4,5 dihydro-5-isoxazole acetic acid-nitric oxide and use thereof as anti-cancer and antiviral agent” (OncoNOx APS, priority 2007, dated 2012)

Assays:
B16 melanoma = B16 melanoma in C57BL/6 mice, treatment with GIT27-NO; format: in vivo
Description: Primary tumors were induced by subcutaneous (s.c) injection of 2×10^5 B16 melanoma cells in the dorsal right lumbosacral region of syngeneic C57BL/6 mice. […] GIT27-NO was prepared immediately before treatment and was applied i.p. at a dose of 0.5 mg/mouse for 14 consecutive days. The animals were observed until day 30, then sacrificed and tumor growth was determined by three-dimensional measurements of individual tumors from each mouse. Tumor volume was calculated using the following formula: [0.52×a×b^2], where a is the longest and b is the shortest diameter (Smagur et al).

C6 cells [1] = assay: LDH release assay (cell death); format: cell-based, rat; conditions: C6, dose-dependent (24 h) and time-dependent (25 μg/ml), significant after 18 h
Description: (§1) As a marker of necrotic cell death, the release of intracellular enzyme LDH, which mediates the conversion 2,4-dinitrophenylhydrazine into visible hydrazone precipitate in the presence of pyruvate, was measured. The cells were seeded in flat-bottom 96-well plates as indicated above and the assay was performed after 24 h incubation, as previously described (Decker et al). The percentage of dead cells was determined using the following formula: [(E−C)/(T−C)]×100, wherein E is the experimental absorbance of treated cultures measured at 492 nm, C is the absorbance of supernatants of control untreated cells, and T is the absorbance corresponding to the maximal (100%) LDH release of Triton-lysed cells. Cell cycle analysis and apoptosis detection were carried out exactly as described in the literature (Mijatovic CMLS 2005). Acidic vesicular organelles, which characterise autophagy, are stained by vital dye acridin orange. The intensity of red fluorescence is proportional to the acidity and volume of the organelles, while the cytoplasm and nucleolus emits bright green and dim red (Kanzawa 2004). […] Green (510-530 nm) and red (>650 nm) fluorescence emission from 10^4 cells illuminated with blue (488 nm) excitation light was measured with a FACS Calibur and analyzed using CellQuest software.

L929 cells = assay: ROS measurement by DHR fluorescence (flow cytometry); format: cell-based, mouse; conditions: L929, 25 μg/ml, 24 h
Description: (§2) The cells grown in the 6-well plate were stained with 1 μM dihydrorhodamine 123 (DHR) 20 min before the treatment with the test compound. At the end of the cultivation period the cells were detached, washed and resuspended in PBS. Analysis of ROS release was performed with a FACSCalibur and analyzed using CellQuest Pro software (Kaludjerovic 2005).

B16 cells = assay: as above; format: cell-based, mouse; conditions: B16, 25 μg/ml, 24 h
Description: as §2

C6 cells [2] = assay: Cell cycle analysis and apoptosis detection (PI staining, flow cytometry); format: cell-based, rat; conditions: C6, 25 μg/ml, 24 h
Description: as §1

## N#Cc1c(COC(=O)CC2CC(c3ccccc3)=NO2)no[n+]1[O-] (racemic) [GIT27-NO, (S,R)-3-phenyl-4,5 dihydro-5-isoxazole acetic acid-nitric oxide]
B16 melanoma; B16 melanoma, 0.5 mg/mouse/day from day 10
  tumor growth compared to untreated control animals: significant reduction of tumor growth
B16 melanoma; B16 melanoma, 30 days follow-up, 2 animals died in control group
  survival during follow-up period: survived 30 days
B16 melanoma; s.c. B16 melanoma, i.p. 0.5 mg/mouse/day from day 10, measured 30 days after implantation, control 2.97 ± 6.4, p < 0.05
  Mean tumor volume: 0.82 ± 1.2
C6 cells [1]
  LDH release: induced LDH release
L929 cells
  intracellular production of ROS (DHR fluorescence): markedly increased
B16 cells
  intracellular production of ROS (DHR fluorescence): markedly increased
C6 cells [2]
  cell cycle effect: cell cycle arrest in G0/G1 phase
  percentage of cells in subG compartment (hypodiploid cells): < 10%
